# Data taken from US20230085307A1, “PYRIDAZINONE COMPOUND AND HERBICIDE” (NISSAN CHEMICAL CORPORATION, priority 2019, published 2023).
# Experiments:
# false cleavers [1] = assay: Test Example 4: herbicidal effect by soil treatment (Table 19, symbol Q); format: in vivo, false cleavers (Galium spurium)
# Outline: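 Applied as a water-diluted emulsion, the compound was sprayed onto soil covering newly sown seeds. Evaluation came three weeks after application, in a greenhouse held at 25° C. to 30° C.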
# false cleavers [2] = assay: Test Example 5: herbicidal effect by foliage application, plastic box (Table 20, symbol Q); format: in vivo, false cleavers (Galium spurium); conditions: foliage application; for herbicidal effect grade, Q: false cleavers / Q: false cleavers, herbicidal effect: three weeks after application; for Q: false cleavers, herbicidal effect / Q: false cleavers, herbicidal effect (criteria 0-5): AAH 320 g/ha; for effect on false cleavers (Q): 3 weeks after application; for herbicidal effect on Q: false cleavers / Q: false cleavers, herbicidal effect (criteria 0-5): evaluated three weeks after application
# Outline: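 Sow seeds spot-wise in sterilized diluvial soil; cover with ~1.5 cm soil. Grow 14 days in greenhouse, 25° C. to 30° C. Spray foliage with emulsion diluted to predetermined amount. Rate effect after 3 weeks.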
# [3] = amount of applied herbicide 320 g/ha
compound,measurement,setting,value
C#CC(C)Oc1ccc(-c2sc3ccccc3c2-c2c(O)c(C)nn(C)c2=O)cc1 (racemic) [1-217],"Q: false cleavers, herbicidal effect rating",false cleavers [1]; AAH 320 g/ha,3 (Herbicidal rate of 40% or more and less than 70%)
C#CC(C)Oc1ccc(-c2sc3ccccc3c2-c2c(OCOCCOC)c(C)nn(C)c2=O)cc1 (racemic) [1-218],"Q: false cleavers, herbicidal effect rating",false cleavers [1]; AAH 187 g/ha,0 (Herbicidal rate of 5% or less (almost no effect))
CCCOc1ccccc1-c1sc2ccccc2c1-c1c(O)c(C)nn(C)c1=O [1-015],"herbicidal effect rating, Q: false cleavers",false cleavers [1]; [3],3 (Herbicidal rate of 40% or more and less than 70%)
same,"herbicidal effect grade, Q: false cleavers",false cleavers [2]; 320 g/ha,5 (Herbicidal rate of 90% or more (almost completely withered))
CCCCCOc1ccc(-c2sc3ccccc3c2-c2c(O)c(C)nn(C)c2=O)cc1 [1-026],"herbicidal effect rating, Q: false cleavers",false cleavers [1]; [3],0 (Herbicidal rate of 5% or less (almost no effect))
same,"herbicidal effect grade, Q: false cleavers",false cleavers [2]; 320 g/ha,4 (Herbicidal rate of 70% or more and less than 90%)
Cc1nn(C)c(=O)c(-c2c(-c3ccccc3OC(F)(F)F)sc3ccccc23)c1O [1-030],"herbicidal effect rating, Q: false cleavers",false cleavers [1]; [3],5 (Herbicidal rate of 90% or more (almost completely withered))
same,"herbicidal effect grade, Q: false cleavers",false cleavers [2]; 320 g/ha,5 (Herbicidal rate of 90% or more (almost completely withered))
CC(=O)c1ccc(-c2sc3ccccc3c2-c2c(O)c(C)nn(C)c2=O)cc1 [1-041],"herbicidal effect rating, Q: false cleavers",false cleavers [1]; [3],5 (Herbicidal rate of 90% or more (almost completely withered))
same,"herbicidal effect grade, Q: false cleavers",false cleavers [2]; 320 g/ha,4 (Herbicidal rate of 70% or more and less than 90%)
CCCC(=O)Oc1c(C)nn(C)c(=O)c1-c1c(-c2ccc(C(C)=NOC)cc2)sc2ccccc12 [1-044],"herbicidal effect rating, Q: false cleavers",false cleavers [1]; [3],4 (Herbicidal rate of 70% or more and less than 90%)
same,"herbicidal effect grade, Q: false cleavers",false cleavers [2]; 320 g/ha,3 (Herbicidal rate of 40% or more and less than 70%)
Cc1cc(-c2sc3ccccc3c2-c2c(O)c(C)nn(C)c2=O)ccc1F [1-051],"herbicidal effect rating, Q: false cleavers",false cleavers [1]; [3],0 (Herbicidal rate of 5% or less (almost no effect))
same,"herbicidal effect grade, Q: false cleavers",false cleavers [2]; 320 g/ha,0 (Herbicidal rate of 5% or less (almost no effect))
CCOc1cc(F)ccc1-c1sc2ccccc2c1-c1c(O)c(C)nn(C)c1=O [1-061],"herbicidal effect rating, Q: false cleavers",false cleavers [1]; [3],4 (Herbicidal rate of 70% or more and less than 90%)
same,"herbicidal effect grade, Q: false cleavers",false cleavers [2]; 320 g/ha,5 (Herbicidal rate of 90% or more (almost completely withered))
COC(=O)Oc1c(C)nn(C)c(=O)c1-c1c(-c2ccc3c(c2)OCCO3)sc2ccccc12 [1-091],"herbicidal effect rating, Q: false cleavers",false cleavers [1]; [3],3 (Herbicidal rate of 40% or more and less than 70%)
same,"Q: false cleavers, herbicidal effect",false cleavers [2],4 (Herbicidal rate of 70% or more and less than 90%)
Cc1nn(C)c(=O)c(-c2c(-c3ccc4c(c3)OCCO4)sc3ccccc23)c1OC(=O)SC(C)(C)C [1-092],"herbicidal effect rating, Q: false cleavers",false cleavers [1]; [3],0 (Herbicidal rate of 5% or less (almost no effect))
same,"Q: false cleavers, herbicidal effect",false cleavers [2],0 (Herbicidal rate of 5% or less (almost no effect))
Cc1nn(C)c(=O)c(-c2c(-c3ccc4c(c3)CCO4)sc3ccccc23)c1O [1-101],"herbicidal effect rating, Q: false cleavers",false cleavers [1]; [3],3 (Herbicidal rate of 40% or more and less than 70%)
same,"Q: false cleavers, herbicidal effect",false cleavers [2],3 (Herbicidal rate of 40% or more and less than 70%)
CCCC(=O)Oc1c(C)nn(C)c(=O)c1-c1c(-c2ccc3c(c2)CCO3)sc2ccccc12 [1-102],"herbicidal effect rating, Q: false cleavers",false cleavers [1]; [3],0 (Herbicidal rate of 5% or less (almost no effect))
same,"Q: false cleavers, herbicidal effect",false cleavers [2],1 (Herbicidal rate of 5% or more and less than 20%)
COCc1ccc(-c2sc3ccccc3c2-c2c(O)c(C)nn(C)c2=O)cc1 [1-131],"Q: false cleavers, herbicidal effect rating",false cleavers [1]; AAH 320 g/ha,0 (Herbicidal rate of 5% or less (almost no effect))
same,"Q: false cleavers, herbicidal effect",false cleavers [2],4 (Herbicidal rate of 70% or more and less than 90%)
Cc1nn(C)c(=O)c(-c2c(-c3ccc(OCCBr)cc3)sc3ccccc23)c1O [1-204],"Q: false cleavers, herbicidal effect rating",false cleavers [1]; AAH 320 g/ha,0 (Herbicidal rate of 5% or less (almost no effect))
C=C(C)COc1ccc(-c2sc3ccccc3c2-c2c(O)c(C)nn(C)c2=O)cc1 [1-208],"Q: false cleavers, herbicidal effect rating",false cleavers [1]; AAH 320 g/ha,0 (Herbicidal rate of 5% or less (almost no effect))
Cc1nn(C)c(=O)c(-c2c(-c3ccc(OCCC4OCCO4)cc3)sc3ccccc23)c1O [1-223],"Q: false cleavers, herbicidal effect rating",false cleavers [1]; AAH 246 g/ha,0 (Herbicidal rate of 5% or less (almost no effect))
COc1ccc(-c2sc3ccc(F)cc3c2-c2c(O)c(C)nn(C)c2=O)cc1 [2-026],effect on false cleavers (Q),false cleavers [2]; 320 g/ha,4 (Herbicidal rate of 70% or more and less than 90%)
CCCC(=O)Oc1c(C)nn(C)c(=O)c1-c1c(-c2ccccc2OCC)sc2ccc(F)cc12 [2-029],"herbicidal effect rating, Q: false cleavers",false cleavers [1]; 266 g/ha,3 (Herbicidal rate of 40% or more and less than 70%)
same,effect on false cleavers (Q),false cleavers [2]; 266 g/ha,4 (Herbicidal rate of 70% or more and less than 90%)
CCCOc1ccc(-c2sc3ccc(F)cc3c2-c2c(O)c(C)nn(C)c2=O)cc1 [2-032],"herbicidal effect rating, Q: false cleavers",false cleavers [1]; 320 g/ha,0 (Herbicidal rate of 5% or less (almost no effect))
Cc1nn(C)c(=O)c(-c2c(-c3ccc(OC(C)C)cc3)sc3ccc(F)cc23)c1O [2-034],"herbicidal effect rating, Q: false cleavers",false cleavers [1]; 320 g/ha,0 (Herbicidal rate of 5% or less (almost no effect))
same,effect on false cleavers (Q),false cleavers [2]; 320 g/ha,4 (Herbicidal rate of 70% or more and less than 90%)
CCCCOc1ccc(-c2sc3ccc(F)cc3c2-c2c(O)c(C)nn(C)c2=O)cc1 [2-036],effect on false cleavers (Q),false cleavers [2]; 320 g/ha,4 (Herbicidal rate of 70% or more and less than 90%)
CON=C(C)c1ccc(-c2sc3ccc(F)cc3c2-c2c(O)c(C)nn(C)c2=O)cc1 [2-079],herbicidal effect on Q: false cleavers,false cleavers [2]; 320 g/ha,5 (Herbicidal rate of 90% or more (almost completely withered))
CCOc1cc(F)ccc1-c1sc2ccc(F)cc2c1-c1c(O)c(C)nn(C)c1=O [2-084],herbicidal effect on Q: false cleavers,false cleavers [2]; 320 g/ha,5 (Herbicidal rate of 90% or more (almost completely withered))
CCCC(=O)Oc1c(C)nn(C)c(=O)c1-c1c(-c2ccc(F)cc2OCC)sc2ccc(F)cc12 [2-085],"herbicidal effect rating, Q: false cleavers",false cleavers [1]; 320 g/ha,4 (Herbicidal rate of 70% or more and less than 90%)
same,herbicidal effect on Q: false cleavers,false cleavers [2]; 320 g/ha,5 (Herbicidal rate of 90% or more (almost completely withered))
Cc1nn(C)c(=O)c(-c2c(-c3ccc4c(c3)OCCO4)sc3ccc(F)cc23)c1O [2-092],herbicidal effect on Q: false cleavers,false cleavers [2]; 320 g/ha,4 (Herbicidal rate of 70% or more and less than 90%)
Cc1nn(C)c(=O)c(-c2c(-c3ccc(Br)cc3)sc3ccc(F)cc23)c1O [2-205],"Q: false cleavers, herbicidal effect rating",false cleavers [1]; [3],1 (Herbicidal rate of 5% or more and less than 20%)
COCC(=O)Oc1c(C)nn(C)c(=O)c1-c1c(-c2ccc(OC(F)F)cc2)sc2ccc(F)cc12 [2-283],herbicidal effect on Q: false cleavers,false cleavers [1]; [3],0 (Herbicidal rate of 5% or less (almost no effect))
same,"Q: false cleavers, herbicidal effect (criteria 0-5)",false cleavers [2],5 (Herbicidal rate of 90% or more (almost completely withered))
Cc1nn(C)c(=O)c(-c2c(-c3ccc(OC(F)F)cc3)sc3ccc(F)cc23)c1OC(=O)OCCCl [2-293],"Q: false cleavers, herbicidal effect (criteria 0-5)",false cleavers [2],5 (Herbicidal rate of 90% or more (almost completely withered))
Cc1nn(C)c(=O)c(-c2c(-c3ccc(OC(F)F)cc3)sc3ccc(F)cc23)c1OC(=S)Sc1ccccc1 [2-298],herbicidal effect on Q: false cleavers,false cleavers [1]; [3],0 (Herbicidal rate of 5% or less (almost no effect))
Cc1nn(C)c(=O)c(-c2c(-c3ccc(O)cc3)sc3ccc(F)cc23)c1O [2-337],herbicidal effect on Q: false cleavers,false cleavers [1]; [3],0 (Herbicidal rate of 5% or less (almost no effect))
Cc1nn(C)c(=O)c(-c2c(-c3ccc([N+](=O)[O-])cc3)sc3ccc(F)cc23)c1O [2-341],herbicidal effect on Q: false cleavers,false cleavers [1]; [3],0 (Herbicidal rate of 5% or less (almost no effect))
